Experimental data as given in the NIST ThermoML archive (doi:10.1021/acs.jced.9b00752).
Numbers after ± are expanded uncertainties.

Assay: mn = molality of the nth substance listed, in mol/kg
Details: 100 kPa, Liquid, Vibrating tube method

N[C@@H](Cc1c[nH]c2ccccc12)C(=O)O [L-tryptophan] + O
mass density [kg/m3]
Details	m1 = 0.0035	m1 = 0.009	m1 = 0.0179	m1 = 0.0306	m1 = 0.0352	m1 = 0.0429	m1 = 0.0536	m1 = 0.0595	m1 = 0.0659	m1 = 0.0769
273.65 K	1000.09 ± 0.12	1000.46 ± 0.12	1001.04 ± 0.12	1001.86 ± 0.12	1002.16 ± 0.12	1002.66 ± 0.12	1003.36 ± 0.12	1003.74 ± 0.12	1004.14 ± 0.12	1004.85 ± 0.12
274.15 K	1000.12 ± 0.12	1000.48 ± 0.12	1001.06 ± 0.12	1001.88 ± 0.12	1002.18 ± 0.12	1002.68 ± 0.12	1003.38 ± 0.12	1003.75 ± 0.12	1004.16 ± 0.12	1004.87 ± 0.12
274.65 K	1000.14 ± 0.12	1000.5 ± 0.12	1001.08 ± 0.12	1001.9 ± 0.12	1002.2 ± 0.12	1002.7 ± 0.12	1003.39 ± 0.12	1003.77 ± 0.12	1004.17 ± 0.12	1004.88 ± 0.12
275.15 K	1000.15 ± 0.12	1000.52 ± 0.12	1001.09 ± 0.12	1001.91 ± 0.12	1002.22 ± 0.12	1002.71 ± 0.12	1003.4 ± 0.12	1003.78 ± 0.12	1004.18 ± 0.12	1004.88 ± 0.12
275.65 K	1000.17 ± 0.12	1000.53 ± 0.12	1001.11 ± 0.12	1001.92 ± 0.12	1002.23 ± 0.12	1002.72 ± 0.12	1003.41 ± 0.12	1003.79 ± 0.12	1004.19 ± 0.12	1004.89 ± 0.12
276.15 K	1000.18 ± 0.12	1000.54 ± 0.12	1001.11 ± 0.12	1001.93 ± 0.12	1002.23 ± 0.12	1002.73 ± 0.12	1003.41 ± 0.12	1003.79 ± 0.12	1004.19 ± 0.12	1004.89 ± 0.12
276.65 K	1000.18 ± 0.12	1000.54 ± 0.12	1001.12 ± 0.12	1001.93 ± 0.12	1002.23 ± 0.12	1002.72 ± 0.12	1003.41 ± 0.12	1003.78 ± 0.12	1004.19 ± 0.12	1004.88 ± 0.12
277.15 K	1000.18 ± 0.12	1000.55 ± 0.12	1001.12 ± 0.12	1001.93 ± 0.12	1002.23 ± 0.12	1002.72 ± 0.12	1003.41 ± 0.12	1003.78 ± 0.12	1004.18 ± 0.12	1004.88 ± 0.12
277.65 K	1000.18 ± 0.12	1000.54 ± 0.12	1001.11 ± 0.12	1001.92 ± 0.12	1002.22 ± 0.12	1002.72 ± 0.12	1003.4 ± 0.12	1003.77 ± 0.12	1004.17 ± 0.12	1004.87 ± 0.12
278.15 K	1000.17 ± 0.12	1000.53 ± 0.12	1001.1 ± 0.12	1001.91 ± 0.12	1002.21 ± 0.12	1002.7 ± 0.12	1003.39 ± 0.12	1003.76 ± 0.12	1004.16 ± 0.12	1004.85 ± 0.12
278.65 K	1000.16 ± 0.12	1000.52 ± 0.12	1001.09 ± 0.12	1001.9 ± 0.12	1002.2 ± 0.12	1002.69 ± 0.12	1003.37 ± 0.12	1003.74 ± 0.12	1004.14 ± 0.12	1004.83 ± 0.12
279.15 K	1000.15 ± 0.12	1000.51 ± 0.12	1001.08 ± 0.12	1001.88 ± 0.12	1002.18 ± 0.12	1002.67 ± 0.12	1003.35 ± 0.12	1003.72 ± 0.12	1004.12 ± 0.12	1004.81 ± 0.12
279.65 K	1000.13 ± 0.12	1000.49 ± 0.12	1001.06 ± 0.12	1001.86 ± 0.12	1002.16 ± 0.12	1002.65 ± 0.12	1003.33 ± 0.12	1003.7 ± 0.12	1004.09 ± 0.12	1004.78 ± 0.12
280.15 K	1000.11 ± 0.12	1000.47 ± 0.12	1001.03 ± 0.12	1001.84 ± 0.12	1002.13 ± 0.12	1002.62 ± 0.12	1003.3 ± 0.12	1003.67 ± 0.12	1004.07 ± 0.12	1004.75 ± 0.12
280.65 K	1000.09 ± 0.12	1000.44 ± 0.12	1001.01 ± 0.12	1001.81 ± 0.12	1002.11 ± 0.12	1002.59 ± 0.12	1003.27 ± 0.12	1003.64 ± 0.12	1004.03 ± 0.12	1004.72 ± 0.12
281.15 K	1000.06 ± 0.12	1000.41 ± 0.12	1000.98 ± 0.12	1001.78 ± 0.12	1002.07 ± 0.12	1002.56 ± 0.12	1003.23 ± 0.12	1003.6 ± 0.12	1004 ± 0.12	1004.68 ± 0.12
281.65 K	1000.02 ± 0.12	1000.38 ± 0.12	1000.94 ± 0.12	1001.74 ± 0.12	1002.04 ± 0.12	1002.52 ± 0.12	1003.2 ± 0.12	1003.56 ± 0.12	1003.96 ± 0.12	1004.64 ± 0.12
282.15 K	999.99 ± 0.12	1000.34 ± 0.12	1000.9 ± 0.12	1001.71 ± 0.12	1002 ± 0.12	1002.48 ± 0.12	1003.15 ± 0.12	1003.52 ± 0.12	1003.92 ± 0.12	1004.6 ± 0.12
282.65 K	999.95 ± 0.12	1000.3 ± 0.12	1000.87 ± 0.12	1001.66 ± 0.12	1001.96 ± 0.12	1002.44 ± 0.12	1003.11 ± 0.12	1003.48 ± 0.12	1003.87 ± 0.12	1004.56 ± 0.12
283.15 K	999.908 ± 0.12	1000.26 ± 0.12	1000.82 ± 0.12	1001.62 ± 0.12	1001.91 ± 0.12	1002.39 ± 0.12	1003.06 ± 0.12	1003.43 ± 0.12	1003.82 ± 0.12	1004.5 ± 0.12
